Test system: Human patients with a history of allergy
Experiment: Allergen challenge of human patients after FK506 eye drops; ocular itching score
Type: in vivo
Procedure: Human patients with a history of allergy were divided into 5 groups and treated in one eye with eye drop (placebo, 0.01% FK506, 0.03% FK506, 0.06% FK506 or 0.1% FK506), and the other eye with placebo. Each eye drop was administered 4 times per day for seven days and 16 hours after the final instillation, patients were administered allergen-containing eye drops at a concentration predetermined to cause a reaction in the patient. The one hundred patients having a baseline itching score of at lease 3, on a scale of 0 to 4, with 4 being most severe, were evaluated.

## C=CC[C@@H]1/C=C(\C)C[C@H](C)C[C@H](OC)[C@H]2O[C@@](O)(C(=O)C(=O)N3CCCC[C@H]3C(=O)O[C@H](/C(C)=C/[C@@H]3CC[C@@H](O)[C@H](OC)C3)[C@H](C)[C@@H](O)CC1=O)[C@H](C)C[C@@H]2OC [FK506, 17-allyl-1,14-dihydroxy-12-[2-(4-hydroxy-3-methoxycyclohexyl)-1-methylvinyl]-23,25-dimethoxy-13,19,21,27-tetramethyl-11,28-dioxa-4-azatricyclo[22.3.1.0^4,9]octacos-18-ene-2,3,10,16-tetraone]
3 minutes post challenge, all concentrations (0.01%, 0.03%, 0.06%, 0.1% eye drops), 4 times per day for seven days, challenge 16 hours after final instillation
  decrease from baseline itching score versus placebo: statistically significant versus placebo
Eye drops 0.01%, 0.03%, 0.06% or 0.1% FK506, 4 times per day for seven days, allergen challenge 16 hours after final instillation, itching scale 0 to 4, FIG. 1
  decrease from baseline itching score: dose response: pronounced dose response

Reference: patent US20050239813A1, “Pharmaceutical compositions comprising fk506 derivatives and their use for the treatment of allergic diseases” (Sucampo Pharmaceuticals Inc., priority 2002, published 2005)
